Experimental findings from patent publication US20080146662A1, “Methods and compositions for treatment of cancer pain” (priority 2002, published 2008) are described below.

Type in all cases: in vivo
Assay [1] has as its target T1, COX-1 (Rattus norvegicus, UniProt Q63921).
T1 construct: The levels of thromboxane B2 in the samples from COX189-treated animals; from tissue; host or cells: samples from treated rats
T1 sequence (Q63921 27-602): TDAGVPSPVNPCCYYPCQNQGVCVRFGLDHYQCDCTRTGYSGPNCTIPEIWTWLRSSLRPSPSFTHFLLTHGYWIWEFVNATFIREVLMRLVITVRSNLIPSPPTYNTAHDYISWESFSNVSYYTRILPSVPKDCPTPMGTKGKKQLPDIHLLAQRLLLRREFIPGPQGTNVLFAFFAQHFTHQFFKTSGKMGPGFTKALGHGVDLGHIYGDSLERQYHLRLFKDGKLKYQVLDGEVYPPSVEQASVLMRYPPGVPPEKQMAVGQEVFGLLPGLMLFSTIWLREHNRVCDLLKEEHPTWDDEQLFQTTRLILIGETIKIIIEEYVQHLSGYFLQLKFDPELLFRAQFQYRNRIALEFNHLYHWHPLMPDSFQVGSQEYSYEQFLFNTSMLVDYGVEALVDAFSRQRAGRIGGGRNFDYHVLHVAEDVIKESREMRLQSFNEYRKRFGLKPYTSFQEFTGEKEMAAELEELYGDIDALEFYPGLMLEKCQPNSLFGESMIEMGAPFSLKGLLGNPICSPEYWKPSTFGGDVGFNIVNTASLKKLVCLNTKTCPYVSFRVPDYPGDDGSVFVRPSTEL
Nature of the assay: Thromboxane B2 levels in samples from treated animals (COX-1 inhibition).

The test system of assay [2] is rat model of bone cancer pain (MRMT-1 rat mammary gland carcinoma cells). Nature of the assay: Radiologically observed structural changes and bone mineral density in rat model of bone cancer pain. The settings on record: for loss of bone mineral density compared to vehicle treated animals / radiologically observed structural changes: day 20. As for the experimental part:
Adult female rats are given intra-tibial injections of MRMT-1 rat mammary gland carcinoma cells (3 μl, 10^7 cells/ml).

Assay [3] shares this test system. Nature of the assay: Weight-bearing difference in rat model of bone cancer pain (intra-tibial MRMT-1 cells). Particulars: for weight-bearing difference between contralateral and ipsilateral paw: vs vehicle. As for the experimental part: Adult female rats are given intra-tibial injections of MRMT-1 rat mammary gland carcinoma cells (3 μl, 10^7 cells/ml). These animals gradually develop mechanical hyperalgesia, mechanical allodynia (skin sensitivity to non-noxious stimuli) and hind limb sparing, beginning on day 12-14 following cell injection. COX-2 inhibitors, 5-methyl-2-(2′-chloro-6′-fluoroanilino)-phenylacetic acid (hereinafter referred to as COX189) (10 and 30 mg/kg p.o.) and valdecoxib (30 mg/kg p.o.) are administered as described below and the results obtained compared with vehicle treated controls.
Intra-tibial inoculation of MRMT-1 cells induces a time-dependent hypersensitivity in the ipsilateral limb, measured as a shift in body weight to the contralateral limb. The increase in weight-bearing difference between contralateral and ipsilateral paw (weight shift from the affected to the unaffected limb) is evident by day 14 post-inoculation and continues to increase until day 20.

Assay [4] shares this test system. As to the kind of experiment: Mechanical allodynia (static and dynamic) in rat model of bone cancer pain. The settings on record: day 20; for static allodynia (punctuate stimulus), ipsilateral paw: 90 minutes after the last administration. As for the experimental part:
Adult female rats are given intra-tibial injections of MRMT-1 rat mammary gland carcinoma cells (3 μl, 10^7 cells/ml). These animals gradually develop mechanical hyperalgesia, mechanical allodynia (skin sensitivity to non-noxious stimuli) and hind limb sparing, beginning on day 12-14 following cell injection.

With `Cc1onc(-c2ccccc2)c1-c1ccc(S(N)(=O)=O)cc1` [valdecoxib, reference compound], in assay [1] (30 mg/kg), the “thromboxane B2 level, % of the levels in the vehicle-control animals” value turned out to be 77.4±27.8%. In addition, in assay [2] (30 mg/kg repeated), the “loss of bone mineral density compared to vehicle treated animals” value is “no significant effect” and the “radiologically observed structural changes” value was “no significant effect”. In addition, the “weight-bearing difference between contralateral and ipsilateral paw” value in assay [3] (30 mg/kg p.o. repeated, day 20) was “significant”. In assay [4] (30 mg/kg p.o. repeated), the “dynamic allodynia (light stroking of the skin), ipsilateral paw” value is recorded as “tendency to reduce” and the “static allodynia (punctuate stimulus), ipsilateral paw” value is given as “significantly reverses”.
`Cc1ccc(Nc2c(F)cccc2Cl)c(CC(=O)O)c1` [COX189, 5-methyl-2-(2′-chloro-6′-fluoroanilino)-phenylacetic acid]: the “thromboxane B2 level, % of the levels in the vehicle-control animals” value in assay [1] (10 mg/kg) is 87.4±17.7%; in assay [1] (30 mg/kg), 64.5±8.0%. The “radiologically observed structural changes” value in assay [2] (10 mg/kg repeated) and in assay [2] (30 mg/kg repeated) was “significantly inhibits” each time. Also, the “loss of bone mineral density compared to vehicle treated animals” value in assay [2] (30 mg/kg repeated) is given as “significantly inhibit”. Besides, the “radiologically observed structural changes in an animal model of bone cancer pain” value in assay [2] (general statement, no dose given) is on record as “inhibit the radiologically observed structural changes”. For the same molecule, the “weight-bearing difference between contralateral and ipsilateral paw” value in assay [3] (10 mg/kg p.o. repeated from day 10 post-inoculation, days 14, 17 and 20, measured 1 hour after drug administration) is “significantly attenuates”; in assay [3] (30 mg/kg p.o. repeated from day 10 post-inoculation, days 14, 17 and 20, measured 1 hour after drug administration), “significantly attenuates”. In addition, the “dose dependence of the effect on weight-bearing difference” value in assay [3] (10 versus 30 mg/kg p.o.) is “not dose-dependent”. Moreover, the “dynamic allodynia (light stroking of the skin), ipsilateral paw” value in assay [4] (10 mg/kg p.o. repeated) is “tendency to reduce”; in assay [4] (30 mg/kg p.o. repeated) it was “reaches statistical significance”. Further, the “static allodynia (punctuate stimulus), ipsilateral paw” value in assay [4] (10 mg/kg p.o. repeated) and in assay [4] (30 mg/kg p.o. repeated) was “significantly reverses” each time.
